Laboratory results from patent publication US20100298141A1, “SUBSTITUTED PYRIDINE N-OXIDE HERBICIDES” (E. I. DU PONT DE NEMOURS AND COMPANY, priority 2007, published 2010).

Experiments:
wheat = assay: Test C pre-/postemergence test; assay type: in vivo, Triticum aestivum
Summary of the method: (§1)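 Seeds were planted and treated preemergence with test chemical in a non-phytotoxic solvent mixture containing surfactant. Postemergence applications of the same formulation went onto plants 2 to 18 cm tall (1- to 4-leaf stage). A dash marks no test result.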

wild oat = assay: Test C pre-/postemergence test; assay type: in vivo, Avena fatua
Summary of the method: as §1

[1] = system: common (oilseed) sunflower; assay: Test C pre-/postemergence test; assay type: in vivo, Helianthus annuus
Summary of the method: as §1

crabgrass = assay: Test A pre-/postemergence greenhouse test; assay type: in vivo, Digitaria sanguinalis; settings: for Plant response rating, Crabgrass, Large: 0 to 100 scale where 0 is no effect and 100 is complete control; for Crabgrass, Large plant response rating: 0 to 100 scale
Summary of the method: (§2)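 Pre: directed soil spray on seeded loam/sand. Post: foliar spray, plants 2–10 cm, 1–2 leaf stage, applied concurrently. Vehicle: non-phytotoxic solvent + surfactant. Greenhouse ~10 d; visual injury rating vs untreated controls.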

umbrella sedge = assay: Test C flooded paddy test; assay type: in vivo, Cyperus difformis; settings: Flood
Summary of the method: (§3)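 Visual injury ratings against untreated controls, taken 13 to 15 days after compound was added to paddy water standing 3 cm above the soil.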

blackgrass = assay: Test C pre-/postemergence test; assay type: in vivo, Alopecurus myosuroides
Summary of the method: as §1

woolly cupgrass = assay: Test C pre-/postemergence test; assay type: in vivo, Eriochloa villosa
Summary of the method: as §1

redroot pigweed = assay: Test A pre-/postemergence greenhouse test; assay type: in vivo, Amaranthus retroflexus; settings: for Plant response rating, Pigweed: 0 to 100 scale where 0 is no effect and 100 is complete control; for Pigweed plant response rating: 0 to 100 scale
Summary of the method: as §2

Goosegrass = assay: Test C pre-/postemergence test; assay type: in vivo, Eleusin indica
Summary of the method: as §1

common ragweed = assay: Test C pre-/postemergence test; assay type: in vivo, Ambrosia elation
Summary of the method: as §1

Italian ryegrass = assay: Test C pre-/postemergence test; assay type: in vivo, Lolium multiflorum
Summary of the method: as §1

green foxtail = assay: Test C pre-/postemergence test; assay type: in vivo, Setaria viridis
Summary of the method: as §1

corn = assay: Test C pre-/postemergence test; assay type: in vivo, Zea mays
Summary of the method: as §1

morningglory = assay: Test A pre-/postemergence greenhouse test; assay type: in vivo, Ipomoea spp.; settings: for Plant response rating, Morningglory: 0 to 100 scale where 0 is no effect and 100 is complete control; for Morningglory plant response rating: 0 to 100 scale
Summary of the method: as §2

duck salad = assay: Test C flooded paddy test; assay type: in vivo, Heteranthera limosa; settings: Flood
Summary of the method: as §3

yellow nutsedge = assay: Test C pre-/postemergence test; assay type: in vivo, Cyperus esculentus
Summary of the method: as §1

[2] = 62 g ai/ha, Preemergence, scale 0 to 100
[3] = 125 g ai/ha, preemergence, scale 0 (no effect) to 100 (complete control)
[4] = Postemergence, 125 g ai/ha, scale 0 to 100, 0 no effect, 100 complete control
[5] = Postemergence, 250 g ai/ha, scale 0 to 100, 0 no effect, 100 complete control
[6] = Preemergence, 31 g ai/ha, scale 0 to 100 (0 no effect, 100 complete control)
[7] = preemergence, 250 g ai/ha, scale 0 (no effect) to 100 (complete control)
[8] = Postemergence, 62 g ai/ha, scale 0 to 100, 0 no effect, 100 complete control
[9] = Postemergence, 500 g ai/ha, 0 is no effect, 100 is complete control
[10] = Preemergence, 125 g ai/ha, 0 no effect, 100 complete control
[11] = 62 g ai/ha, scale 0 to 100 (0 no effect, 100 complete control)
[12] = 250 g ai/ha, scale 0 to 100, 0 no effect, 100 complete control, 13 to 15 days

CCn1nc(C(F)(F)F)c(C[S+]([O-])c2cccc[n+]2[O-])c1OCC(F)(F)F (racemic) [Compound 65]
100: Wheat plant response rating (wheat; [3]) | Wheat plant response rating (wheat; [7]) | Oat, Wild plant response rating (wild oat; [7]) | Sunflower plant response rating [1, 3] | Plant response rating, Crabgrass, Large (crabgrass; Preemergence, 500 g ai/ha) | Plant response rating, Sedge, Umbrella (umbrella sedge; [12]) | Blackgrass plant response rating (blackgrass; [2]) | Blackgrass plant response rating (blackgrass; [3]) | Plant response rating, Blackgrass (blackgrass; [6]) | Blackgrass plant response rating (blackgrass; [7]) | Cupgrass, Woolly plant response rating (woolly cupgrass; [3]) | Cupgrass, Woolly plant response rating (woolly cupgrass; [7]) | Pigweed plant response rating (redroot pigweed; [10]) | Plant response rating, Pigweed (redroot pigweed; Preemergence, 500 g ai/ha) | Goosegrass plant response rating (Goosegrass; [2]) | Goosegrass plant response rating (Goosegrass; [3]) | Plant response rating, Goosegrass (Goosegrass; [6]) | Goosegrass plant response rating (Goosegrass; [7]) | Ragweed plant response rating (common ragweed; [2]) | Ragweed plant response rating (common ragweed; [3]) | Plant response rating, Ragweed (common ragweed; [6]) | Ragweed plant response rating (common ragweed; [7]) | Ryegrass, Italian plant response rating (Italian ryegrass; [2]) | Ryegrass, Italian plant response rating (Italian ryegrass; [3]) | Ryegrass, Italian plant response rating (Italian ryegrass; [7]) | Foxtail, Green plant response rating (green foxtail; [2]) | Foxtail, Green plant response rating (green foxtail; [3]) | Foxtail, Green plant response rating (green foxtail; [7]) | Corn plant response rating (corn; [2]) | Corn plant response rating (corn; [3]) | Corn plant response rating (corn; [7]) | Plant response rating, Morningglory (morningglory; Preemergence, 500 g ai/ha) | Plant response rating, Ducksalad (duck salad; [12])
0: Plant response rating (0 to 100), Wheat (wheat; Postemergence, 31 g ai/ha) | Plant response rating (0 to 100), Wheat (wheat; Postemergence, 62 g ai/ha) | Plant response rating (0 to 100), Oat, Wild (wild oat; Postemergence, 31 g ai/ha) | Plant response rating (0 to 100), Blackgrass (blackgrass; Postemergence, 31 g ai/ha) | Plant response rating (0 to 100), Cupgrass, Woolly (woolly cupgrass; Postemergence, 31 g ai/ha) | Plant response rating, Cupgrass, Woolly (woolly cupgrass; [8]) | Plant response rating, Cupgrass, Woolly (woolly cupgrass; [4]) | Plant response rating (0 to 100), Goosegrass (Goosegrass; Postemergence, 31 g ai/ha) | Plant response rating, Goosegrass (Goosegrass; [8]) | Plant response rating, Goosegrass (Goosegrass; [4]) | Plant response rating (0 to 100), Ragweed (common ragweed; Postemergence, 31 g ai/ha) | Plant response rating (0 to 100), Ragweed (common ragweed; Postemergence, 62 g ai/ha) | Plant response rating, Ragweed (common ragweed; [4]) | Plant response rating, Ragweed (common ragweed; [5]) | Plant response rating (0 to 100), Ryegrass, Italian (Italian ryegrass; Postemergence, 31 g ai/ha) | Plant response rating (0 to 100), Ryegrass, Italian (Italian ryegrass; Postemergence, 62 g ai/ha) | Plant response rating (0 to 100), Corn (corn; Postemergence, 31 g ai/ha) | Plant response rating, Corn (corn; [8]) | Plant response rating (0 to 100), Nutsedge, Yellow (yellow nutsedge; Postemergence, 31 g ai/ha) | Plant response rating, Nutsedge, Yellow (yellow nutsedge; [8]) | Plant response rating, Nutsedge, Yellow (yellow nutsedge; [4]) | Plant response rating, Nutsedge, Yellow (yellow nutsedge; [5]) | Plant response rating, Nutsedge, Yellow (yellow nutsedge; [6])
25: Plant response rating, Wheat (wheat; [4])
50: Plant response rating, Wheat (wheat; [6]) | Sunflower plant response rating [1, 2] | Plant response rating, Ryegrass, Italian (Italian ryegrass; [6]) | Plant response rating, Foxtail, Green (green foxtail; [8]) | Plant response rating, Corn (corn; [4]) | Nutsedge, Yellow plant response rating (yellow nutsedge; [3])
60: Plant response rating, Sedge, Umbrella (umbrella sedge; [11]) | Plant response rating, Morningglory (morningglory; Postemergence, 125 g ai/ha) | Morningglory plant response rating (morningglory; [10]) | Nutsedge, Yellow plant response rating (yellow nutsedge; [7])
40: Plant response rating, Oat, Wild (wild oat; [8]) | Cupgrass, Woolly plant response rating (woolly cupgrass; [2]) | Plant response rating, Cupgrass, Woolly (woolly cupgrass; [5]) | Plant response rating, Cupgrass, Woolly (woolly cupgrass; [6]) | Nutsedge, Yellow plant response rating (yellow nutsedge; [2])
85: Plant response rating, Oat, Wild (wild oat; [5]) | Plant response rating, Oat, Wild (wild oat; [6])
70: Plant response rating, Goosegrass (Goosegrass; [5]) | Plant response rating, Corn (corn; [6])
5: Plant response rating (0 to 100), Foxtail, Green (green foxtail; Postemergence, 31 g ai/ha)
45: Plant response rating, Sunflower [1, 6]
80: Wheat plant response rating (wheat; [2]) | Plant response rating, Oat, Wild (wild oat; [4]) | Plant response rating, Crabgrass, Large (crabgrass; Postemergence, 125 g ai/ha) | Plant response rating, Pigweed (redroot pigweed; Postemergence, 125 g ai/ha) | Plant response rating, Foxtail, Green (green foxtail; [4])
30: Plant response rating, Wheat (wheat; [5]) | Plant response rating, Blackgrass (blackgrass; [8]) | Plant response rating, Blackgrass (blackgrass; [5]) | Plant response rating, Ducksalad (duck salad; [11])
90: Crabgrass, Large plant response rating (crabgrass; [9]) | Crabgrass, Large plant response rating (crabgrass; [10]) | Pigweed plant response rating (redroot pigweed; [9]) | Plant response rating, Ryegrass, Italian (Italian ryegrass; [4]) | Plant response rating, Foxtail, Green (green foxtail; [5]) | Plant response rating, Foxtail, Green (green foxtail; [6]) | Morningglory plant response rating (morningglory; [9])
98: Oat, Wild plant response rating (wild oat; [2]) | Oat, Wild plant response rating (wild oat; [3])
95: Plant response rating, Ryegrass, Italian (Italian ryegrass; [5])
